This passage reports IC50 results from ChEMBL document CHEMBL4261532, “Theoretical models of inhibitory activity for inhibitors of protein-protein interactions: targeting menin-mixed lineage leukemia with small molecules” (Medchemcomm, 2017).

Assay [1] deals with T1, Menin/Histone-lysine N-methyltransferase MLL (Homo sapiens, UniProt O00255). Kind of assay: Inhibition of menin (unknown origin)-FITC-tagged MLL1 (unknown origin) protein-protein interaction after 1 hr by fluorescence polarization assay. (In general: In fluorescence polarisation assays a small probe gives low polarisation when free and higher when bound to something large.)
T1 sequence (O00255 whole entry): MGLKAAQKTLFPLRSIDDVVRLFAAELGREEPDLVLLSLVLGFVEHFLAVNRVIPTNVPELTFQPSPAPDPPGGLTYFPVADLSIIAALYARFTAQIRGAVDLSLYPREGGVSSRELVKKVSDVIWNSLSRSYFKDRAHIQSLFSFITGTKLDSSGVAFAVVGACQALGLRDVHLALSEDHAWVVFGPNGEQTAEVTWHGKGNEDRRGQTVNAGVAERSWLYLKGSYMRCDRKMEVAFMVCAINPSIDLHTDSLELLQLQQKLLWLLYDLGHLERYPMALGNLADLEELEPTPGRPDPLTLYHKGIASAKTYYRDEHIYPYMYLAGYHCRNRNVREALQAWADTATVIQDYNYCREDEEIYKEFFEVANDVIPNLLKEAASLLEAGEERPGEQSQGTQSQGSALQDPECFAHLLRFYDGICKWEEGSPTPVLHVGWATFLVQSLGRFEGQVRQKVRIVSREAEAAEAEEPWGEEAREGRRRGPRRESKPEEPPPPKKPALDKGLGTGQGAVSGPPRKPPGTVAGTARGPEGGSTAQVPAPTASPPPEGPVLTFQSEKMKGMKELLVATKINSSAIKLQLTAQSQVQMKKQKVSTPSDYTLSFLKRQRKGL
T1 sequence (Q03164 1-2718 partner limits assumed): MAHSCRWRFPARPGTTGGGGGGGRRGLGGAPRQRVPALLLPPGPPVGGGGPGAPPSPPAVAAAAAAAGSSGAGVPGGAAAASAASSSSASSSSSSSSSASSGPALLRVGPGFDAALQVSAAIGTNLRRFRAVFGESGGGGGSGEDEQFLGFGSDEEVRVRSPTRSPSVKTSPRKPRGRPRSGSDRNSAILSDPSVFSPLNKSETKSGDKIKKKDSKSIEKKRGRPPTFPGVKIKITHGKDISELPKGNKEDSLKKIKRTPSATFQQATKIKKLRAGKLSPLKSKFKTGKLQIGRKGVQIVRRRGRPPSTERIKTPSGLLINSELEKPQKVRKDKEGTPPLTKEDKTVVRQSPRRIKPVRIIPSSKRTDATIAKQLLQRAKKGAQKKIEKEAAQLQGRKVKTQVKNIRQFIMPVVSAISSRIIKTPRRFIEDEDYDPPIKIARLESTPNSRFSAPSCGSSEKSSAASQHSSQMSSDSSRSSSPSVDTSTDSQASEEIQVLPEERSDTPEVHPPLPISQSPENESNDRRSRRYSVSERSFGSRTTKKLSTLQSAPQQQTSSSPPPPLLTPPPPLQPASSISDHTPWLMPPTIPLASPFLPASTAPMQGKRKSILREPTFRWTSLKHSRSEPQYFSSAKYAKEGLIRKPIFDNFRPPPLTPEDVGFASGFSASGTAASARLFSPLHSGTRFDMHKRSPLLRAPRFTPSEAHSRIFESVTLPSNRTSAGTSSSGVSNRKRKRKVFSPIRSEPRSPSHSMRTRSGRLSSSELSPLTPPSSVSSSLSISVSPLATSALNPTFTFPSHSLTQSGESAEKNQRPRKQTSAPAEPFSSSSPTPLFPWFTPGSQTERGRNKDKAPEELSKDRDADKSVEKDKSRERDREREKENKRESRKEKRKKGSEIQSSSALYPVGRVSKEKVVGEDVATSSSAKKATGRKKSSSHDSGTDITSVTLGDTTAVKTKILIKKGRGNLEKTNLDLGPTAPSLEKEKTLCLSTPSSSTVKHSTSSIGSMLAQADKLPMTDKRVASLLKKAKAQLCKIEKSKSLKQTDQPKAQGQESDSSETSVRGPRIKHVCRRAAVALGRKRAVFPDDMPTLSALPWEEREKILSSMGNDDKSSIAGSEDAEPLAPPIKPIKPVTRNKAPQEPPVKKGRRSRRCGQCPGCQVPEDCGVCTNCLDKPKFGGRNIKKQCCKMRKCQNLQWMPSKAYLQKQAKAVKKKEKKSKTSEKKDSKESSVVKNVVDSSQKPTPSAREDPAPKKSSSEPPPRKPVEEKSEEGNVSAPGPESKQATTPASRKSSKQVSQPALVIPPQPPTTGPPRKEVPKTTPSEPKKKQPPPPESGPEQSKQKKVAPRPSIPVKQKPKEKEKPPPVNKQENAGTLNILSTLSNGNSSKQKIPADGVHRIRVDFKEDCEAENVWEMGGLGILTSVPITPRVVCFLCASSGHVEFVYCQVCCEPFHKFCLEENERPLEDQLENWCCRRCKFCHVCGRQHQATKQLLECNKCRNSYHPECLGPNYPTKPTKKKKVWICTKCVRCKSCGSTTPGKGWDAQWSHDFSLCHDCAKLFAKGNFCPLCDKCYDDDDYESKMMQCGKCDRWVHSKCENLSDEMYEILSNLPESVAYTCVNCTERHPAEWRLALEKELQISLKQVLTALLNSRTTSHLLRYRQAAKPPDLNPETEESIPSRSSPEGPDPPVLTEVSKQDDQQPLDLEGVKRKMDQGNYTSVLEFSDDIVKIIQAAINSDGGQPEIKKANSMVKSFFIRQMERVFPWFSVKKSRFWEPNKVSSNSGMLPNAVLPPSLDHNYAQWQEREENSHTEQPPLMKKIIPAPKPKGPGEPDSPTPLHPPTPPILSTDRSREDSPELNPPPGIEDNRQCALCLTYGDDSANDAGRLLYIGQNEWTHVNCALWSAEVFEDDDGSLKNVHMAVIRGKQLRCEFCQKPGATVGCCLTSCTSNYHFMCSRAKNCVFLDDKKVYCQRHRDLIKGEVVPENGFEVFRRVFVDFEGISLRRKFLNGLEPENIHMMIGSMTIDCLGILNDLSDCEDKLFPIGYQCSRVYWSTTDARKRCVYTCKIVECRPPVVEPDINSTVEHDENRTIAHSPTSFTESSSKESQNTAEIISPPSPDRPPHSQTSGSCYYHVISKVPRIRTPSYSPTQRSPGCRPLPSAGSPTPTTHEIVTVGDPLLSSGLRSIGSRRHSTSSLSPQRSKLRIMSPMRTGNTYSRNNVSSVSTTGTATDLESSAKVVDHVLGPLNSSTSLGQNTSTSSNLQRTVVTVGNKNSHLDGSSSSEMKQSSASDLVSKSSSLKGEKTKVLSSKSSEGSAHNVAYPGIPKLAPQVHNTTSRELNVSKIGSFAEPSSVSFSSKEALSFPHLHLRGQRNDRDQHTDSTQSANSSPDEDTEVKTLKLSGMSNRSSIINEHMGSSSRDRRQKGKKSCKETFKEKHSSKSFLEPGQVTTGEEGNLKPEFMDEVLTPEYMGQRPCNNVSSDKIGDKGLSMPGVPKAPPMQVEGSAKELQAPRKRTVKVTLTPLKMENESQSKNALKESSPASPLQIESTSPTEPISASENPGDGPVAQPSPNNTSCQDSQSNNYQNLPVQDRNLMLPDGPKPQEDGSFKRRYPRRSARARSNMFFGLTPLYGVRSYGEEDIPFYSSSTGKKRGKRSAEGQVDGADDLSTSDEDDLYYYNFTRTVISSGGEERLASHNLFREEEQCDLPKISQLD
T1 sequence (Q03164 2719-3969 partner limits assumed): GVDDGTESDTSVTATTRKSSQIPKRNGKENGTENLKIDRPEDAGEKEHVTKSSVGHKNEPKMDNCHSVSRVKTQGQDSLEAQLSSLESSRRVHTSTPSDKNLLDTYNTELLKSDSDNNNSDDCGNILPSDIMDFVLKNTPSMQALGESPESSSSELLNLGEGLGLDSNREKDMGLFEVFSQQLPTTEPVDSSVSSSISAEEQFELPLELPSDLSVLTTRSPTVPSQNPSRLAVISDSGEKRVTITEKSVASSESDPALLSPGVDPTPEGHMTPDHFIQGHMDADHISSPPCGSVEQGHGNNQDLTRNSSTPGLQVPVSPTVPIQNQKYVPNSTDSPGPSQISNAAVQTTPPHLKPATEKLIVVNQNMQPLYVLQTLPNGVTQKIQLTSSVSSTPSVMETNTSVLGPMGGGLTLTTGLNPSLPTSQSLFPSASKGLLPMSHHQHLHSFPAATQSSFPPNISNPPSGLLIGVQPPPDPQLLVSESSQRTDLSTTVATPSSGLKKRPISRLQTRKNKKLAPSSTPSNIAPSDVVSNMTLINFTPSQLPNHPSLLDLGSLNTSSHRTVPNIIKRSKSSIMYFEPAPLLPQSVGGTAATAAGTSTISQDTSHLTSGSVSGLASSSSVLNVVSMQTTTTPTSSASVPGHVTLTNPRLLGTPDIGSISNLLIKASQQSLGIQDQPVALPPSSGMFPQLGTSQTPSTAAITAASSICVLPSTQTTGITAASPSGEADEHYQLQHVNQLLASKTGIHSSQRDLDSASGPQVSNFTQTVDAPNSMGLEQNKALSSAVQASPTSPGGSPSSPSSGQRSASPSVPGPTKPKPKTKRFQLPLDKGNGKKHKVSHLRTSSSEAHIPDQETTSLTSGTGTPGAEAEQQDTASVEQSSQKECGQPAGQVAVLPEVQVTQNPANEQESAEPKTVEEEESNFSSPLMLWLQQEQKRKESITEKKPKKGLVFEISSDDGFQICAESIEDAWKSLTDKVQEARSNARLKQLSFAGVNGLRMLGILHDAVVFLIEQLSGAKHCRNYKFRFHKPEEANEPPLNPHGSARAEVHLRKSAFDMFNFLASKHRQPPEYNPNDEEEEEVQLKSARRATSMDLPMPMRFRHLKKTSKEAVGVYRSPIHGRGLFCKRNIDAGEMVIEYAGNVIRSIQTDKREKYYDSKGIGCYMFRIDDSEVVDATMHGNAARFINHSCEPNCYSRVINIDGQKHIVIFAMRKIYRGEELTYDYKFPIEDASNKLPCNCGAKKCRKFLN

Assay [2] deals with T1, Menin/Histone-lysine N-methyltransferase MLL. Kind of assay: Inhibition of menin (unknown origin)-fluorescein-labeled MLL1 (unknown origin) after 1 hr by fluorescence polarization assay. Format: protein assay.
Assay [3] shares this target. The assay can be described thus: Inhibition of full length human menin-MLL1 (4 to 43 residues) (unknown origin) protein-protein interaction after 1 hr by fluorescence polarization assay.

As for `CCc1cc2c(N3CCN(Cc4ccccc4)CC3)ncnc2s1`, the IC50 – broadly, the concentration at which inhibition is half-maximal – in assay [1] came to 52 µM. In other words, the double-digit micromolar range.

In the case of `CCc1cc2c(N3CCN(c4ccccn4)CC3)ncnc2s1`, in assay [1], the IC50 was determined as 58 µM. Consider `CCc1cc2c(N3CCN(c4ncccn4)CC3)ncnc2s1`, for which half-maximal inhibition in assay [1] (IC50) required 87 µM. In turn, `CCc1cc2c(N3CCN(Cc4ccc(Cl)cc4)CC3)ncnc2s1` came in with an IC50 in assay [1] of 14 µM.

In assay [2], `CCc1cc2c(N3CCN(c4nnc(C(F)(F)F)s4)CC3)ncnc2s1` showed an IC50 of 1.3 µM. Turning to `FC(F)(F)Cc1cc2c(N3CCN(c4nnc(C(F)(F)F)o4)CC3)ncnc2s1`, 1.4 µM corresponded to half-maximal inhibition in assay [2] (IC50). `CCc1cc2c(N3CCN(c4nncs4)CC3)ncnc2s1` registered an IC50 in assay [1] of 193 µM. Consider `FC(F)(F)c1nnc(N2CCN(c3ncnc4sc(C5CC5)cc34)CC2)s1`, for which the half-inhibitory concentration (IC50) in assay [2] was found to be 2 µM. This lies in the single-digit micromolar range. For the molecule `CC(c1cc2c(N3CCN(C4=NCC(C)(C)S4)CC3)ncnc2s1)C(F)(F)F` (stereo not given), the IC50 in assay [3] was 0.765 µM. The molecule `CCCc1cc2c(N3CCN(c4nnc(C(F)(F)F)[nH]4)CC3)ncnc2s1` came in with an IC50 in assay [2] of 200 µM. Molecule `CCCCc1cc2c(N3CCN(C4=NCC(C)(C)S4)CC3)ncnc2s1` returned an IC50 in assay [1] of 0.75 µM. That is a sub-micromolar value. Take `CC1(C)CN=C(N2CCN(c3ncnc4sc(CCCl)cc34)CC2)S1`: in assay [2], the IC50 came out at 0.193 µM. With `CCc1cc2c(N3CCN(c4nccs4)CC3)ncnc2s1`, the IC50 in assay [1] is 46 µM. Turning to `CSc1cc2c(N3CCN(c4nnc(C(F)(F)F)s4)CC3)ncnc2s1`, in assay [2], the IC50 is 20 µM. For `CCCc1cc2c(N3CCN(c4nnc(C(F)(F)F)s4)CC3)ncnc2s1`, the midpoint of inhibition in assay [2], the IC50, lay at 0.65 µM.
